From patent US11464782B2, “Method of treating pain or interstitial cystitis using indole compound” (Japan Tobacco Inc., priority 2018, dated 2022)

How the values were obtained:
[1] = system: CIA model rats; assay: Analgesic effect in rat collagen-induced arthritis (CIA) model, paw withdrawal threshold by Randall-Selitto method; format: in vivo; conditions: rats with CIA; 10 or 30 mg/kg oral once per day Days 22-28; measured Day 28
Protocol: The analgesic effect of Compound A on hypersensitivity to pain during the onset of arthritis in a rat CIA model was evaluated. Hypersensitivity to pain was evaluated using the paw withdrawal threshold (PWT) in relation to mechanical stimulus using the Randall-Selitto method.
Female LEW/CrlCrlj rats (Charles River Laboratories Japan, Inc.) were used for the experiment. A monohydrochloride of Compound A was dissolved in 0.5% methyl cellulose (MC) to prepare 2 mg/mL and 6 mg/mL solutions of Compound A. Type II collagen derived from joint bovine cartilage (Collagen Research Center) was dissolved in acetic acid to prepare a 2 mg/mL type II collagen solution. Equal volumes of the 2 mg/mL type II collagen solution and incomplete Freund's adjuvant were mixed to prepare a 1 mg/mL type II collagen emulsion.
On Day 1, the type II collagen emulsion was intradermally injected into the animals in the vehicle group, the Compound A 10 mg/kg administration group, and the Compound A 30 mg/kg administration group. On Day 8, the type II collagen emulsion was intradermally injected into the animals in the vehicle group, the Compound A 10 mg/kg administration group, and the Compound A 30 mg/kg administration group. […] On Day 28, the analgesic effect was measured using a Randall-Selitto analgesy-meter (TK-201, UNICOM). The means values and standard deviations of the PWT values for each group were calculated.

[2] = system: NGF-induced thermal hyperalgesia; assay: NGF-induced thermal hyperalgesia in rats (plantar test, paw withdrawal latency); format: in vivo, rat
Protocol: In order to induce a pain-related behavior (withdrawal behavior), NGF was injected into the plantar area of the left hind paw of rats and the thermal latencies/mechanical thresholds were measured. The effects of Compound A on these withdrawal behaviors were investigated. At 2 days before the injection of NGF, the thermal latencies or mechanical thresholds were measured for acclimation to the experimental environment. On the day before injection of NGF, body weights and values of the thermal latencies or mechanical thresholds were obtained. 50 μL of NGF solution was injected intraplantar to left hind paw of rats. 0.5 μg/site of NGF was selected in the evaluation of thermal stimuli and 1 μg/site was selected in that of mechanical stimuli. A monohydrochloride of Compound A (1, 3, or 10 mg/kg) was administered orally at the same time as the NGF injection. The latencies to thermal stimuli were measured at 3 and 6 hours after injection of NGF solution, and the thresholds to mechanical stimuli were measured at 1, 3 and 6 hours after injection of NGF solution. The evaluation was performed as a blind test of each group. The thermal latency was measured using a plantar test apparatus. An infrared heat stimuli was delivered to the plantar area of the hind paw and the time to withdraw the paw from the heat source was recorded automatically as the thermal latency. The measurement was performed 5 times for both hind paws of each animal, the averages of the last 3 values in each hind paw were accounted as the thermal latencies of each animal. The measurement for acclimation was performed only 3 times.

[3] = system: rats with CYP-induced cystitis; assay: Rat CYP-induced cystitis model, frequent urination by cystometry; format: in vivo; conditions: 2 or 6 mg/mL solutions at 5 mL/kg oral twice a day Day 1-2, cystometry Day 3
Protocol: The effect of Compound A on frequent urination, calculated by single voided volume and intermicturition interval, was evaluated using a rat CYP-induced cystitis model. The evaluation was performed according to G M. Herrera et al., PLoS ONE 5 (8): e12298. Female CD (SD) rats (Charles River Laboratories Japan, Inc.) were used as the experimental animals. A monohydrochloride of Compound A was dissolved in 0.5% MC to prepare 2 mg/mL and 6 mg/mL solutions of Compound A.
30 mg/mL of CYP (Sigma) dissolved in saline was intraperitoneally administered in the vehicle group and Compound A group and saline was intraperitoneally administered in the sham group at 5 mL/kg (Day 1).
0.5% (w/v) MC was orally administered once a day for 2 days (Day 1-2) in the sham group and vehicle group at 5 mL/kg, and 2 mg/mL or 6 mg/mL solutions of Compound A was orally administered twice a day (Day 1-2) in the Compound A administration group at 5 mL/kg.
Intravesical pressure and voided volume were measured by cystometry on Day 3, and single voided volumes and intermicturition intervals were calculated. Mean values were calculated for each group from individual single voided volumes and intermicturition intervals, and the results are shown in FIG. 12A and FIG. 12B, respectively.

C[C@@H](C(=O)N(C)c1ccc2cc(-c3n[nH]c4c3CCC(C)(C)C4)[nH]c2c1)N1CCOCC1 [Compound A, N-[2-(6,6-dimethyl-4,5,6,7-tetrahydro-1H-indazol-3-yl)-1H-indol-6-yl]-N-methyl-(2S)-2-(morpholin-4-yl)propanamide]
hyperalgesia (paw withdrawal threshold to mechanical stimulus) [1]: attenuated hyperalgesia | dose from which significant effects were observed (thermal latency) ([2]; at 6 hours after NGF injection, oral): ≥ 3 mg/kg | effect on the decrease in the thermal latencies induced by NGF ([2]; compared with the vehicle, 1, 3, 10 mg/kg oral, dose related): prevented the decrease in the thermal latencies induced by NGF | frequent urination (single voided volume, intermicturition interval) [3]: suppressed frequent urination
